Test results from ChEMBL document CHEMBL5335856, “Structurally Diverse Alkaloids with Anti-Renal-Fibrosis Activity from the Centipede Scolopendra subspinipes mutilans” (J Nat Prod, 2024).
Activity calls are given as the source filed them. No cut-off for these calls is given here.

Assays:
NRK-52E = assay: Anti-renal-fibrosis activity in TGF-beta1 induced rat NRK-52E cells assessed as downregulation of alpha-SMA protein level by Western blot analysis; assay type: functional, cell-based; settings: dose 5-40 µM
[1] = biological target: Nonsense-mediated mRNA decay factor SMG7 (Homo sapiens) (UniProt Q92540); assay: Binding affinity to Smg7 (unknown origin) at 200 uM preincubated for 2 hrs followed by pronase addition and measured after 30 mins by coomassie blue staining based SDS-PAGE gel analysis
Sequence of Nonsense-mediated mRNA decay factor SMG7 (Homo sapiens) (Q92540 whole entry): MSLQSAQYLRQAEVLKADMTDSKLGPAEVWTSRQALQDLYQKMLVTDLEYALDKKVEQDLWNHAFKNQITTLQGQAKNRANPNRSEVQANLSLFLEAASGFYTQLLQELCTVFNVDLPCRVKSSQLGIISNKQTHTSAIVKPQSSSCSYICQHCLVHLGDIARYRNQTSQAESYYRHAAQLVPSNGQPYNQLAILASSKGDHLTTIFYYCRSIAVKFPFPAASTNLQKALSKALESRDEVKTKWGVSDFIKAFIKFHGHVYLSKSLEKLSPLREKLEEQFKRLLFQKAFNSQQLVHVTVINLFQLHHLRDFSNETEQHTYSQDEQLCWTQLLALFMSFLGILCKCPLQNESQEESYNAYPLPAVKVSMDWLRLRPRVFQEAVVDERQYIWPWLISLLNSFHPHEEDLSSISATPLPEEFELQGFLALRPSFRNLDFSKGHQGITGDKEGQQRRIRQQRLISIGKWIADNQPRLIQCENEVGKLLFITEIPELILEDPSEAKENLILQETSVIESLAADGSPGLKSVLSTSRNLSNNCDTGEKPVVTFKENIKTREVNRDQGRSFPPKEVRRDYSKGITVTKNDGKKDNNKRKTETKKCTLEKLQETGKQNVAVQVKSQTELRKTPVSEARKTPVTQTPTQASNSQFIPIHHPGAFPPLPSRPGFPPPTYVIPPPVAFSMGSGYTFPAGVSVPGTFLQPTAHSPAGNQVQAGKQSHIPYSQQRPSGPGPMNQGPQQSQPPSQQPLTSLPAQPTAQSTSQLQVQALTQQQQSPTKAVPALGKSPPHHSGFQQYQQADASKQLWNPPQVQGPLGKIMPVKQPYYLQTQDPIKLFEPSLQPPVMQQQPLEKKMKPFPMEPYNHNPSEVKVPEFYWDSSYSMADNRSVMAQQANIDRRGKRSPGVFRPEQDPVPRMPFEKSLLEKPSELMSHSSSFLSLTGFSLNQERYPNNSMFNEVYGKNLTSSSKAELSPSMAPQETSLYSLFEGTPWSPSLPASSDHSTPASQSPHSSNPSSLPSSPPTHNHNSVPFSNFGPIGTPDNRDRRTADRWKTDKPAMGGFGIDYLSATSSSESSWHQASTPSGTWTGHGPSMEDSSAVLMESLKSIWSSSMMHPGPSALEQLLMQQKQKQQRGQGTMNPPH

[2] = biological target: Poly(rC)-binding protein 3 (Homo sapiens) (UniProt P57721); assay: Binding affinity to Pcbp3 (unknown origin) at 200 uM preincubated for 2 hrs followed by pronase addition and measured after 30 mins by coomassie blue staining based SDS-PAGE gel analysis
Sequence of Poly(rC)-binding protein 3 (Homo sapiens) (P57721 whole entry): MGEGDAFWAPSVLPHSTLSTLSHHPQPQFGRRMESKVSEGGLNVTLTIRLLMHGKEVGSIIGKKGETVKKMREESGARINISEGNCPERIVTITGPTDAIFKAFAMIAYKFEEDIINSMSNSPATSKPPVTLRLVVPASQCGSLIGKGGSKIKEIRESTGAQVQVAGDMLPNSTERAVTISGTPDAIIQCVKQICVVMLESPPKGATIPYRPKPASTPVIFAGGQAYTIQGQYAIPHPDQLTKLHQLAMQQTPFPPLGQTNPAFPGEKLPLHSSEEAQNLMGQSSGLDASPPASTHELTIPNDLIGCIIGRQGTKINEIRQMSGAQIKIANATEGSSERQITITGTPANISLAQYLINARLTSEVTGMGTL

[3] = biological target: Far upstream element-binding protein 2 (Homo sapiens) (UniProt Q92945); assay: Binding affinity to KHSRP (unknown origin) assessed as fold change in protein upregulation at 200 uM preincubated for 2 hrs followed by pronase addition and measured after 30 mins by coomassie blue staining based SDS-PAGE gel analysis
Sequence of Far upstream element-binding protein 2 (Homo sapiens) (Q92945 whole entry): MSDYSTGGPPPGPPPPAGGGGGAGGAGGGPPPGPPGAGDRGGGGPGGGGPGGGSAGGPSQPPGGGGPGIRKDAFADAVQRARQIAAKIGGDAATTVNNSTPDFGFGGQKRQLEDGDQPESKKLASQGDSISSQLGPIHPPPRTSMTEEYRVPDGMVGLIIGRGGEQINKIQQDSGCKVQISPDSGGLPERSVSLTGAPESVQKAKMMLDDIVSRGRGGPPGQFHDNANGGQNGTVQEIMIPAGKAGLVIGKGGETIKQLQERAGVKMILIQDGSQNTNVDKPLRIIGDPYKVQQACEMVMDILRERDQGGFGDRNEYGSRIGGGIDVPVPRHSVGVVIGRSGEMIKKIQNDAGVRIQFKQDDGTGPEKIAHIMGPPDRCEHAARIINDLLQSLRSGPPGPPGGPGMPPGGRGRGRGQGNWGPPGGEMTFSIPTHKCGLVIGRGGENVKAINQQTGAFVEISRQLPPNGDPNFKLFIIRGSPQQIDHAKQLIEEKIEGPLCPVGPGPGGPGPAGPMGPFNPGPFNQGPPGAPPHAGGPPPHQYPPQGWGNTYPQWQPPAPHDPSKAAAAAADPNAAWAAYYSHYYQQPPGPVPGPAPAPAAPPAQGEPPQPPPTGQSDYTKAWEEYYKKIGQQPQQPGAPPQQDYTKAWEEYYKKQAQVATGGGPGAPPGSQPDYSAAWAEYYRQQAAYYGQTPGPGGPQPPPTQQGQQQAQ

[4] = biological target: Armadillo repeat-containing protein 10 (Homo sapiens) (UniProt Q8N2F6); assay: Binding affinity to Armc10 (unknown origin) at 200 uM preincubated for 2 hrs followed by pronase addition and measured after 30 mins by coomassie blue staining based SDS-PAGE gel analysis
Sequence of Armadillo repeat-containing protein 10 (Homo sapiens) (Q8N2F6 whole entry): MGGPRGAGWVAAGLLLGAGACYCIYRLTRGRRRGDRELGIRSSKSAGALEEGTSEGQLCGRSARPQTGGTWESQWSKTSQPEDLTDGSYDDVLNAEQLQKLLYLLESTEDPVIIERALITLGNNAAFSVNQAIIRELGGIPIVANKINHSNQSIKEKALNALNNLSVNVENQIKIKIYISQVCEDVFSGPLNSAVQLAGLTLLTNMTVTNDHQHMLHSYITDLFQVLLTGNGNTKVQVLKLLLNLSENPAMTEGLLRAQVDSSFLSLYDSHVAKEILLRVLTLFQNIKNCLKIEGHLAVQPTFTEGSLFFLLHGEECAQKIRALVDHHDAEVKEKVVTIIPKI

In the case of `COc1c(O)nc2c(O)cccc2c1OC`, the Activity (NRK-52E) is reported as “Dose-Dependent Effect”, the Activity [1] is reported as “Active” and the Activity [2] is reported as “Active”. The fold change (FC) [3] was 2.19 and the Activity [4] was “Active”.
